# Test results: patent US20240000826A1, “METHODS FOR THE TREATMENT OF CARDIOVASCULAR DISEASE WITH CYCLODEXTRINS” (Beren Therapeutics P.B.C., priority 2020, published 2024)
# Experiments:
# total cholesterol = total cholesterol level in treated subject; format: in vivo; details: one human subject; IV 500-1,000 mg/kg every 4 weeks as in Example 2; FIGS. 4A-4C
# Description: (§1) The increased production of 24S-hydroxycholesterol and 27-hydroxycholesterol enhance cholesterol metabolism, by acting as endogenous ligands for LXR transcription factors responsible for an anti-inflammatory gene signature.
# 27-hydroxycholesterol = assay: plasma level of 27-hydroxycholesterol in treated subject; format: in vivo; details: one human subject; IV 500-1,000 mg/kg every 4 weeks as in Example 2; FIGS. 4A-4C
# Description: as §1
# cholesterol crystals [1] = assay: CCDC of pre-dose blood plasma incubated ex vivo with 2-hydroxypropyl-beta-cyclodextrin; set-up: species or system human; details: pre-dose plasma treated ex vivo with 2-hydroxypropyl-beta-cyclodextrin; FIG. 3B
# Description: (§2) For each dose, whole blood was collected pre-dose, post-dose (line flush), 1 hour post-dose, and 24 hours post-dose. Plasma was separated from the whole blood and subjected to a cholesterol crystal dissolution capacity (CCDC) assay using techniques similar to those described in the literature. The CCDC assay measures the ability of a sample to dissolve cholesterol crystals.
# cholesterol crystals [2] = assay: cholesterol crystal dissolution capacity (CCDC) assay of plasma from treated subject; format: in vivo; details: one human subject; single-ascending IV doses 500, 750, 1,000, 1,000 mg/kg every 4 weeks; plasma pre-dose, post-dose, 1 hour and 24 hours post-dose; FIG. 3A
# Description: as §2
# 24S-hydroxycholesterol = assay: plasma level of 24S-hydroxycholesterol in treated subject; format: in vivo; details: one human subject; IV 500-1,000 mg/kg every 4 weeks as in Example 2; FIGS. 4A-4C
# Description: as §1
# ABCA1 = ABCA1 mRNA level in treated subject; format: in vivo; details: one human subject; IV 500-1,000 mg/kg every 4 weeks as in Example 2; FIGS. 5A-5D
# ABCG1 = ABCG1 mRNA level in treated subject; format: in vivo; details: one human subject; IV 500-1,000 mg/kg every 4 weeks as in Example 2; FIGS. 5A-5D
substance,measurement,setting,value
2-hydroxypropyl-beta-cyclodextrin,total cholesterol levels,total cholesterol,remained stable
same,plasma level of 27-hydroxycholesterol,27-hydroxycholesterol,increased plasma levels
same,capacity of plasma to dissolve cholesterol crystals,cholesterol crystals [1],increased capacity to dissolve cholesterol crystals
same,capability of blood plasma to dissolve cholesterol crystals (CCDC),cholesterol crystals [2],increased capability of blood plasma to dissolve cholesterol crystals
same,plasma level of 24S-hydroxycholesterol,24S-hydroxycholesterol,increased plasma levels
same,ABCA1 mRNA levels,ABCA1,increased mRNA levels
same,ABCG1 mRNA levels,ABCG1,increased mRNA levels
